Assay results as given in US20230022575A1, “BACTERIAL CONJUGATIVE SYSTEM AND THERAPEUTIC USES THEREOF” (SOCIÉTÉ DE COMMERCIALISATION DES PRODUITS DE LA RECHERCHE …, priority 2018, published 2023).
Values after ≈ are worked out from the molar mass of the structure shown.

Legend:
EcN = experiment: Minimal inhibitory concentration (MIC) of EcN strains; format: cell-based, Escherichia coli Nissle 1917; details: Escherichia coli; strain EcN
KN01 = experiment: as above; format: cell-based, Escherichia coli Nissle 1917; details: Escherichia coli, read-out: Minimal inhibitory concentration (MIC)
KN02 = experiment: as above; format: cell-based, Escherichia coli Nissle 1917; details: Escherichia coli, read-out: Minimal inhibitory concentration (MIC)
[1] = system: endogenous Enterobacteriaceae; experiment: Streptomycin treatment and EcN (KN01) colonization of the murine gut; format: in vivo, mouse; details: 1 g/L of Sm in drinking water, mice
Experimental: FIGS. 3.A to G. Streptomycin (Sm) treatment improves mouse gut colonization by Escherichia coli Nissle 1917 (EcN). The ability of different Sm concentrations to deplete endogenous Enterobacteriaceae (white area) and to promote EcN colonization (gray area) was evaluated by quantifying CFU in feces from mice treated with 0 mg/L (FIG. 3.A), 50 mg/L (FIG. 3.B), 100 mg/L (FIG. 3.C), 250 mg/L (FIG. 3.D), 450 mg/L (FIG. 3.E) and 1000 mg/L (FIG. 3.F) in drinking water starting at day −2. The colonization levels of KN01 in several sections of the intestinal tract of untreated (0) and streptomycin-treated ( ) mice was evaluated (FIG. 3.G). […]
Mouse model. All mice-related protocols were designed in compliance with our institution Animal Care Comity Guidelines and were strictly evaluated to avoid animal suffering. […] Animal weight and health was monitored daily throughout each experiment. […] For Sm treated mice groups, Sm working concentration was first evaluated to maximize Enterobacteriaceae clearance and EcN colonization (Kotula et al., 2014). […] Bacterial load was monitored in feces sampling at specified time points. […] Animals were then dissected to reveal the colonization pattern and gut bacterial content was evaluated by CFU. […]
Feces and tissues processing. […] CFUs/mg sample were calculated as a function of the sample measured weight. […]

Row | Compound | MIC (EcN) [µg/mL] | MIC (KN01) [µg/mL] | MIC (KN02) [µg/mL] | Enterobacteriaceae clearance and KN01 colonization [1]
1 | CC1(C)S[C@@H]2[C@H](NC(=O)[C@H](N)c3ccccc3)C(=O)N2[C@H]1C(=O)O [Ap, ampicillin] | < 25 | < 25 | < 25 | –
2 | [H]/N=C(/N)N[C@H]1[C@H](O)[C@@H](O)[C@H](O[C@@H]2O[C@@H](C)[C@](O)(C=O)[C@H]2O[C@@H]2O[C@@H](CO)[C@H](O)[C@@H](O)[C@@H]2NC)[C@@H](N/C(N)=N\[H])[C@@H]1O [Sm, streptomycin] | 25 (≈ 43 µM) | 800 (≈ 1380 µM) | > 1600 | cleared Enterobactericeae while allowing stable colonization of the KN01 strain
3 | O=C(N[C@H](CO)[C@H](O)c1ccc([N+](=O)[O-])cc1)C(Cl)Cl [Cm, chloramphenicol] | < 8 | < 8 | 264 (≈ 817 µM) | –
4 | CN[C@@H]1[C@H](O)[C@H](NC)[C@H]2O[C@@]3(O)C(=O)C[C@@H](C)O[C@H]3O[C@@H]2[C@H]1O [Sp, spectinomycin] | 50 (≈ 150 µM) | 3000 (≈ 9030 µM) | – | –
